Reference: US5981499A, “Lesion-directed antibiotics in dry dosage forms for the treatment of shallow ulcers of the oral mucosa” (Atlantic Biomed Corporation, priority 1998, dated 1999)
Counter-ions that a name gives are not always drawn. Like-named read-outs stand apart in the source and are kept apart here.

Experiments:
aphthous ulcers = conditions: background, cited from earlier work; for efficacy of prior treatment: aphthous ulcers/stomatitis
[1] = Concentration at the ulcer assuming the troche dissolves in 0.1 ml of saliva; conditions: assuming troche dissolved in 0.1 ml saliva
Protocol: Application of the penicillin/magnesium stearate troches in the aforementioned manner created a supratherapeutic concentration of penicillin on the raw surface of the aphthous ulcer. Assuming that the troche is dissolved in 0.1 ml of saliva locally at the ulcer, the initial concentration of penicillin would reach up to 500 mg/ml, and that of magnesium stearate 10 mg/ml. Under the influence of this extraordinarily high concentration of penicillin G or penicillin V, most microorganisms of the normal flora cannot survive or continue to multiply, permitting tissue regeneration processes to occur under the protective barrier coating formed by the magnesium stearate.
When the oxytetracycline hydrochloride/magnesium stearate troches are applied in the manner described in Example 1, extraordinarily high concentrations of antibiotic were released on the raw surface of the treated ulcers. Assuming that the troche is dissolved in 0.1 ml of saliva, the peak concentration of oxytetracycline would be between about 400-800 mg/ml locally at the site of the ulcer, and that of magnesium stearate 10 mg/ml.

[2] = Local peak and one-hour trough antibiotic concentration in loculated saliva at the site of the troche (microbiological dilution assay); type: in vivo, human; conditions: 50 mg troche; for local trough concentration of penicillin in saliva: end of one-hour duration
[3] = test system: Staphylococcus aureus (ATCC 29213); test: Minimum inhibitory concentration against the standard strain by serial two-fold dilution in nutrient broth; type: cell-based
Protocol: For determination of the peak concentration, 1 ml of the bacteria-free filtrate was further diluted with 9 ml of nutrient broth to achieve a 1:10,000 dilution of the saliva. Then a serial two-fold dilution was made of this 1:10,000 diluted saliva sample with an equal volume of nutrient broth in a roll of test tubes to obtain a series of 1 ml aliquots of nutrient broth in which the saliva was diluted to 20,000, 40,000, 80,000, 160,000, 320,000, 640,000, 1,280,000 and 2,560,000 folds respectively. […] Thus the final dilutions of the saliva sample were in the range of 40,000 to 5,120,000 folds.
As control standards, a series of test tubes containing 1 ml of nutrient broth with varying concentrations of penicillin G potassium salt ranging from 0.1 units to 10 units/ml were similarly mixed with an equal volume of nutrient broth freshly inoculated with the standard tubes of Staphylococcus aureus. Both the test and control standard tubes were incubated at 37° C. for 18 hours. Among the test tubes showing no gross evidence of bacterial growth, the one containing the highest dilution of saliva and the one containing the least amount of penicillin G were considered as having the identical concentration of penicillin, i.e. the MIC of the staphylococcus aureus.

[4] = single intravenous injection of penicillin G, usually 500 mg; cited from earlier work
Gram-negative bacilli = conditions: cited from earlier work
[5] = test system: Patients with aphthous ulcers; test: Topical treatment of patients with aphthous ulcers; type: in vivo, human
Protocol: Patients with aphthous ulcers were advised to brush their teeth to rid them of food residues, and to rinse their mouths with water prior to initiating treatment.
One penicillin/magnesium stearate troche was placed in the patients' mouths directly over the ulcerated lesion. The troche was dissolved or disintegrated in a minimum amount of saliva directly over the ulcer in no more than 15 minutes, preferably in about 8 to about 12 minutes. The patients were advised to keep the ingredients of the disintegrated troche at the site of the lesion as long as possible. Food and beverages were avoided for one hour after each treatment. If multiple aphthous ulcers were present, one troche was required for the treatment of each ulcer. The topical treatments were conducted 4 times daily, for example, after breakfast, after lunch, after dinner and before bed time for no more than 4 days. […] The burning sensation lessened with subsequent applications.
For instance, the first sign of healing is usually the fading of the hyperemic zone at the periphery of the ulcer and the lessening of edema at the base of the ulcer. The membrane covering the ulcer becomes thinner, more translucent, more pearly white instead of a grayish-yellowish white prior to the application and contract with the troche. […]

[6] = test system: Staphylococcus aureus (ATCC 29213); conditions: ATCC 29213, known range; cited from earlier work

O=C1CCC(N2C(=O)c3ccccc3C2=O)C(=O)N1 (stereo not shown) [Thalidomide]
efficacy of prior treatment (aphthous ulcers): effective in some HIV-infected patients | adverse reactions of prior treatment (aphthous ulcers): teratogenic

CCCCCCCCCCCCCCCCCC(=O)O [magnesium stearate]
concentration of magnesium stearate at the ulcer [1]: 10000 µg/mL

CN(C)[C@@H]1C(=O)C(C(N)=O)=C(O)[C@@]2(O)C(=O)C3=C(O)c4c(O)cccc4[C@@](C)(O)[C@H]3[C@H](O)[C@@H]12 [oxytetracycline hydrochloride, Oxytetracycline hydrochloride]
one-hour trough concentration of oxytetracycline hydrochloride in saliva ([2]; two subjects, 60 min): 8 mg/mL | Cmax ([2]; human, in vivo, topical or ocular, 50 mg, two subjects, read-out: initial peak concentration of oxytetracycline hydrochloride in saliva): 400000 µg/mL | concentration at 1 h ([2]; human, in vivo, topical or ocular, two subjects, read-out: one-hour trough concentration of oxytetracycline hydrochloride in saliva): 8000 µg/mL | MIC ([3]; Staphylococcus aureus, ATCC29213, ATCC 29213, read-out: sensitivity to oxytetracycline hydrochloride, MIC): 1 µg/mL | initial/peak concentration of antibiotic at the ulcer [1]: 400 to 800 mg/mL

CC1(C)S[C@@H]2[C@H](NC(=O)Cc3ccccc3)C(=O)N2[C@H]1C(=O)O [penicillin G]
average peak blood level [4]: about 26 units/ml | local trough concentration of penicillin in saliva [2]: 4,000-64,000 units/ml | local trough concentration of penicillin in saliva ([2]; 60 min): 2.5 to 40 mg/mL | Cmax ([2]; human, in vivo, topical or ocular, at complete dissolution, read-out: initial peak local concentration of penicillin G in saliva): 500000 µg/mL | MIC of penicillin G for the standard strain of Staphylococcus aureus ([3]; three experiments, 37° C., 18 hours): 1 unit/ml | susceptibility of many Gram-negative bacilli (Salmonella, Shigella, most Escherichia coli, all Proteus mirabilis, most Bacteroides strains) (Gram-negative bacilli; 740 mcg/ml as cut-off MIC): sensitive | susceptibility of Gram-negative bacilli (Gram-negative bacilli; at 16 mcg/ml): resistant

CC1(C)S[C@@H]2[C@H](NC(=O)Cc3ccccc3)C(=O)N2[C@H]1C(=O)O [penicillin]
efficacy of prior treatment (aphthous ulcers): ineffective | adverse reactions of prior treatment (aphthous ulcers): likely to produce hypersensitivity | adverse reactions of stomatitis or discoloration of the tongue ([5]; 4 days of penicillin medication): no observed adverse reactions | status of ulcer after 4 days of medication ([5]; after 4 days): only remnants of a thin pearly whitish membrane remain, if any, covering an incompletely re-epithelialized newly healed ulcer | known minimum inhibitory concentration (MIC) of the standard strain [6]: 0.25-2 units of penicillin/ml

O=S(=O)([O-])[O-].[Zn+2] [zinc sulfate]
efficacy of prior treatment (aphthous ulcers): responded

aluminum subsalt of sucrose-8-sulfate [sucralfate]
efficacy of prior treatment (aphthous ulcers): responded
